From paper PMC3235172, “Distinct Expression Profiles and Different Functions of Odorant Binding Proteins in Nilaparvata lugens Stål” (PLoS ONE, 2011)
Read-outs that look alike come from different tables or passages of the source.

Tests used:
[1] = biological target: NlugOBP1 (Nilaparvata lugens, UniProt B6E9U1); assay: Competitive fluorescence binding assay (1-NPN probe) with recombinant NlugOBP1
Protocol: (§1) The excitation wavelength was 337 nm and the emission spectrum was recorded between 370 and 460 nm by a fluorescence spectrometer (Hitachi F-7000 Fluorescence Spectrophotometer, Japan) with a 1 cm light path quartz cuvette and 10 nm slits for both excitation and emission.

[2] = biological target: NlugOBP2 (Nilaparvata lugens, UniProt B6E9U2); assay: Competitive fluorescence binding assay (1-NPN probe) with recombinant NlugOBP2
NlugOBP2, sequence (B6E9U2 entry or part of it): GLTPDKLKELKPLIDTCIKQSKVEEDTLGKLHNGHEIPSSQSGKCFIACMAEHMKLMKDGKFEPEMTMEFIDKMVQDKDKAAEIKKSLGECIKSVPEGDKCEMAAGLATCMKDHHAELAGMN
Protocol: as §1

[3] = biological target: NlugOBP3 (Nilaparvata lugens, UniProt B6E9U3); assay: Competitive fluorescence binding assay (1-NPN probe) with recombinant NlugOBP3
NlugOBP3, sequence (B6E9U3 entry or part of it): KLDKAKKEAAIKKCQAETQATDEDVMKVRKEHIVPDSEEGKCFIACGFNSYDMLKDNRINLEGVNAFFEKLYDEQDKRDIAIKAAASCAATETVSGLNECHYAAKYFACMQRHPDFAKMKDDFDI
Protocol: as §1

[4] = calculated from IC50, protein and 1-NPN at 2 µM, pH 7.4, read-out: OBP1 Ki
[5] = displacement of 1-NPN, protein and 1-NPN at 2 µM, 50 mM Tris-HCl pH 7.4, read-out: OBP1 IC50
[6] = calculated from IC50, protein and 1-NPN at 2 µM, pH 7.4, read-out: OBP2 Ki
[7] = displacement of 1-NPN, protein and 1-NPN at 2 µM, 50 mM Tris-HCl pH 7.4, read-out: OBP2 IC50
[8] = calculated from IC50, protein and 1-NPN at 2 µM, pH 7.4, read-out: OBP3 Ki
[9] = displacement of 1-NPN, protein and 1-NPN at 2 µM, 50 mM Tris-HCl pH 7.4, read-out: OBP3 IC50

NlugOBP1, sequence (B6E9U1 entry or part of it): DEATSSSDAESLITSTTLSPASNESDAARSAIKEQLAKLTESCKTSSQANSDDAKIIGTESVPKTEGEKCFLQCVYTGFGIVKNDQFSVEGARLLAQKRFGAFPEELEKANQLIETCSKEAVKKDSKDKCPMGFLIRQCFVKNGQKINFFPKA

| Ki [1, 4] [µM] | IC50 [1, 5] [µM] | Ki [2, 6] [µM] | IC50 [2, 7] [µM] | Ki [3, 8] [µM] | IC50 [3, 9] [µM] | Compound | IC50 [1] [µM] | Ki [1] [µM] | binding ability with NlugOBP1 (in words) [1] | IC50 [2] [µM] | Ki [2] [µM] | binding ability with NlugOBP2 (in words) [2] | IC50 [3] [µM] | Ki [3] [µM] | binding ability with NlugOBP3 (in words) [3] | Kd [1] [µM] | Kd [2] [µM] | Kd [3] [µM] |
| --- | --- | --- | --- | --- | --- | --- | --- | --- | --- | --- | --- | --- | --- | --- | --- | --- | --- | --- |
| 24.2 | 28.4 | 29.1 | 33.9 | 17.7 | 24.8 | C=CC(C)(O)CC/C=C(\C)CCC=C(C)C (racemic) [Ligand 3, (+/-)Nerolidol] |  |  |  |  |  |  |  |  |  |  |  |  |
|  |  |  |  |  |  | COC(C)(C)CCC[C@H](C)C/C=C/C(C)=C/C(=O)OC(C)C (racemic) [Ligand 39, Methoprene] | 19.4 | 16.6 | high binding ability | 21.1 | 18.1 | high binding ability | 14.7 | 10.5 | high binding ability |  |  |  |
|  |  |  |  |  |  | c1ccc(Nc2cccc3ccccc23)cc1 [Ligand 1-NPN, N-phenyl-1-naphthyl-amine, reference compound] |  |  |  |  |  |  |  |  |  | 9.7 ± 0.9 | 10.3 ± 1.3 | 3.2 ± 0.3 |
| > 50 | > 50 | > 50 | > 50 | > 50 | > 50 | CCCCCC(C)O (centres unmarked) [Ligand 2, 2-Heptanol] |  |  |  |  |  |  |  |  |  |  |  |  |
|  |  |  |  |  |  | CC/C=C/CCO [Ligand 4, (E)-3-Hexen-1-ol] | > 50 | > 50 |  | > 50 | > 50 |  | 29.6 | 21.1 |  |  |  |  |
| 19.5 | 22.8 | 19.8 | 23 | 4.9 | 6.9 | CC(C)=CCC/C(C)=C/CC/C(C)=C/CO [Ligand 5, Farnesol] |  |  | high binding ability |  |  | high binding ability |  |  | high binding ability |  |  |  |
|  |  |  |  |  |  | C=CC(C)(O)CCC=C(C)C (centres unmarked) [Ligand 6, Linalool] | 40.8 | 34.7 | some affinities | > 50 | > 50 |  | > 50 | > 50 | none |  |  |  |
| 34 | 39.9 | > 50 | > 50 | 26.1 | 36.6 | OCCc1ccccc1 [Ligand 7, 2-phenylethanol] |  |  |  |  |  |  |  |  |  |  |  |  |
|  |  |  |  |  |  | CC(C)=CCC/C(C)=C/CO [Ligand 8, Geraniol] | > 50 | > 50 |  | > 50 | > 50 |  | 32.6 | 23.3 |  |  |  |  |
|  |  |  |  |  |  | CC1CCC(C(C)C)C(O)C1 (centres unmarked) [Ligand 10, Menthol] | > 50 | > 50 |  | > 50 | > 50 |  | > 50 | > 50 |  |  |  |  |
| 16.6 | 19.5 | > 50 | > 50 | 18.9 | 26.5 | CCCCCCCCCCCC=O [Ligand 12, Dodecyl aldehyde] |  |  |  |  |  |  |  |  |  |  |  |  |
|  |  |  |  |  |  | CCC/C=C/C=O [Ligand 13, (E)-2-Hexenal] | > 50 | > 50 | binds none | 33.5 | 28.8 | can bind | 42 | 30 | could bind |  |  |  |
|  |  |  |  |  |  | O=Cc1ccccc1 [Ligand 14, Benzaldehyde] | > 50 | > 50 |  | 38.7 | 33.3 |  | 41 | 29.3 |  |  |  |  |
| 20.5 | 24 | 37.1 | 43.2 | 8.6 | 12 | CCCCCCCCCCCC(C)=O [Ligand 15, 2-Tridecanone] |  |  | relatively high binding abilities |  |  | relatively high binding abilities |  |  | relatively high binding abilities |  |  |  |
